Test results from patent US20230039887A1, “COMPOSITIONS FOR TOPICAL TREATMENT OF RADIATION DERMATITIS” (priority 2021, published 2023).

What was measured:
Assay type in all cases: cell-based
IL24 = assay: qPCR gene expression in tissues treated topically, IL24; conditions: topical, without radiation exposure
Procedure: (§1) Next, changes in gene expression were measured in tissues treated topically with the formulations (without radiation exposure) using qPCR. This provides evidence that the CBD is being absorbed by the tissues. Five genes were examined: APOB, CSF2, IL24, MT1F, and MT1G.
(§2) Statistical significance was determined using unpaired t-test, P<0.05, N=3, and are indicated in bold. The results are provided in Table B in both linear fold change values (FC) and in percent change. It is noted that changes in gene expression in general were only seen in the treatments where CBD was used.

APOB = assay: qPCR gene expression in tissues treated topically, APOB; conditions: topical, without radiation exposure
Procedure: (§3) Next, changes in gene expression were measured in tissues treated topically with the formulations (without radiation exposure) using qPCR. […] Five genes were examined: APOB, CSF2, IL24, MT1F, and MT1G.
(§4) Statistical significance was determined using unpaired t-test, P<0.05, N=3, and are indicated in bold. The results are provided in Table B in both linear fold change values (FC) and in percent change.

MT1F = assay: qPCR gene expression in tissues treated topically, MT1F; conditions: topical, without radiation exposure
Procedure: as §1, §2

MT1G = assay: qPCR gene expression in tissues treated topically, MT1G; conditions: topical, without radiation exposure
Procedure: as §1, §2

cells = assay: MTT assay of cell viability after 24 hours topical application; parameters: cell viability: dose or concentration left out as unconfirmed
Procedure: Test materials were applied topically for 24 hours and an MTT assay was used to check the viability of cells.
The relative results are provided in the following Table A, with the untreated group defining 100% viability, and shown in FIG. 1. * indicates p≤0.05 and ** indicates p≤0.01 statistical significance after performing unpaired t-test.

CSF2 = assay: qPCR gene expression in tissues treated topically, CSF2; conditions: topical, without radiation exposure
Procedure: as §3, §4

Q: Which “IL24 gene expression, % Δ (percent change)” value (IL24; 1 mg/mL CBD) does the source give for `C=C(C)[C@@H]1CCC(C)=C[C@H]1c1c(O)cc(CCCCC)cc1O` [CBD, 2-[(1R,6R)-6-Isopropenyl-3-methylcyclohex-2-en-1-yl]-5-pentylbenzene-1,3-diol] here?
A: Its value is 55%.

Q: What about the “IL24 gene expression, % Δ (percent change)” value (IL24; 10 mg/mL CBD) of the same compound?
A: The value was 48%.

Q: And the “IL24 gene expression, % Δ (percent change)” value (IL24; 30 mg/mL CBD)?
A: Its value is −70%.

Q: And the “IL24 gene expression, % Δ (percent change)” value (IL24; 60 mg/mL CBD)?
A: Its value is −11%.

Q: What about the “IL24 gene expression, % Δ (percent change)” value (IL24; 120 mg/mL CBD) of the same compound?
A: The value was 63%.

Q: And the “IL24 gene expression, % Δ (percent change)” value (IL24; 250 mg/mL CBD)?
A: Its value is 59%.

Q: What about the “IL24 gene expression, % Δ (percent change)” value (IL24; 500 mg/mL CBD) of the same compound?
A: The value was −6%.

Q: What about the “IL24 gene expression, % Δ (percent change)” value (IL24; 750 mg/mL CBD) of the same compound?
A: Its value is 54%.

Q: And the “APOB gene expression, % Δ (percent change)” value (APOB; 1 mg/mL CBD)?
A: The value was 23%.

Q: And the “APOB gene expression, FC (linear fold change)” value (APOB; 1 mg/mL CBD)?
A: The value was 1.23.

Q: And the “APOB gene expression, % Δ (percent change)” value (APOB; 10 mg/mL CBD)?
A: The value was 0%.

Q: What about the “APOB gene expression, FC (linear fold change)” value (APOB; 10 mg/mL CBD) of the same compound?
A: Its value is 1.00.

Q: And the “APOB gene expression, % Δ (percent change)” value (APOB; 30 mg/mL CBD)?
A: Its value is −16%.

Q: What about the “APOB gene expression, FC (linear fold change)” value (APOB; 30 mg/mL CBD) of the same compound?
A: Its value is −1.19.

Q: What about the “APOB gene expression, % Δ (percent change)” value (APOB; 60 mg/mL CBD) of the same compound?
A: The value was 51%.

Q: And the “APOB gene expression, % Δ (percent change)” value (APOB; 120 mg/mL CBD)?
A: The value was −9%.

Q: And the “APOB gene expression, FC (linear fold change)” value (APOB; 120 mg/mL CBD)?
A: Its value is −1.10.

Q: And the “APOB gene expression, % Δ (percent change)” value (APOB; 250 mg/mL CBD)?
A: Its value is −60%.

Q: What about the “APOB gene expression, FC (linear fold change)” value (APOB; 250 mg/mL CBD) of the same compound?
A: Its value is −2.48.

Q: And the “APOB gene expression, % Δ (percent change)” value (APOB; 500 mg/mL CBD)?
A: Its value is −96%.

Q: What about the “APOB gene expression, FC (linear fold change)” value (APOB; 500 mg/mL CBD) of the same compound?
A: The value was −22.22.

Q: What about the “APOB gene expression, % Δ (percent change)” value (APOB; 750 mg/mL CBD) of the same compound?
A: Its value is −96%.

Q: What about the “APOB gene expression, FC (linear fold change)” value (APOB; 750 mg/mL CBD) of the same compound?
A: The value was −25.64.

Q: What about the “MT1F gene expression, % Δ (percent change)” value (MT1F; 1 mg/mL CBD) of the same compound?
A: Its value is 147%.

Q: And the “MT1F gene expression, % Δ (percent change)” value (MT1F; 10 mg/mL CBD)?
A: Its value is 40%.

Q: What about the “MT1F gene expression, % Δ (percent change)” value (MT1F; 30 mg/mL CBD) of the same compound?
A: Its value is −65%.

Q: And the “MT1F gene expression, % Δ (percent change)” value (MT1F; 60 mg/mL CBD)?
A: The value was 134%.

Q: And the “MT1F gene expression, % Δ (percent change)” value (MT1F; 120 mg/mL CBD)?
A: Its value is 602%.

Q: What about the “MT1F gene expression, % Δ (percent change)” value (MT1F; 250 mg/mL CBD) of the same compound?
A: Its value is 2163%.

Q: And the “MT1F gene expression, % Δ (percent change)” value (MT1F; 500 mg/mL CBD)?
A: Its value is 3963%.

Q: And the “MT1F gene expression, % Δ (percent change)” value (MT1F; 750 mg/mL CBD)?
A: Its value is 2971%.

Q: What about the “MT1G gene expression, % Δ (percent change)” value (MT1G; 1 mg/mL CBD) of the same compound?
A: Its value is −41%.

Q: What about the “MT1G gene expression, % Δ (percent change)” value (MT1G; 10 mg/mL CBD) of the same compound?
A: Its value is −4%.

Q: What about the “MT1G gene expression, % Δ (percent change)” value (MT1G; 30 mg/mL CBD) of the same compound?
A: Its value is 92%.

Q: What about the “MT1G gene expression, % Δ (percent change)” value (MT1G; 60 mg/mL CBD) of the same compound?
A: Its value is 2526%.

Q: And the “MT1G gene expression, % Δ (percent change)” value (MT1G; 120 mg/mL CBD)?
A: Its value is 5186%.

Q: What about the “MT1G gene expression, % Δ (percent change)” value (MT1G; 250 mg/mL CBD) of the same compound?
A: The value was 13439%.

Q: And the “MT1G gene expression, % Δ (percent change)” value (MT1G; 500 mg/mL CBD)?
A: Its value is 33439%.

Q: And the “MT1G gene expression, % Δ (percent change)” value (MT1G; 750 mg/mL CBD)?
A: The value was 23223%.

Q: What about the cell viability (cells) of the same compound?
A: The cell viability was “significant increase”.

Q: What about the “CSF2 gene expression, % Δ (percent change)” value (CSF2; 1 mg/mL CBD) of the same compound?
A: Its value is 117%.

Q: And the “CSF2 gene expression, % Δ (percent change)” value (CSF2; 10 mg/mL CBD)?
A: Its value is 118%.

Q: And the “CSF2 gene expression, % Δ (percent change)” value (CSF2; 30 mg/mL CBD)?
A: The value was −19%.

Q: And the “CSF2 gene expression, % Δ (percent change)” value (CSF2; 60 mg/mL CBD)?
A: Its value is 186%.

Q: What about the “CSF2 gene expression, % Δ (percent change)” value (CSF2; 120 mg/mL CBD) of the same compound?
A: Its value is 448%.

Q: And the “CSF2 gene expression, % Δ (percent change)” value (CSF2; 250 mg/mL CBD)?
A: Its value is 763%.

Q: And the “CSF2 gene expression, % Δ (percent change)” value (CSF2; 500 mg/mL CBD)?
A: Its value is −30%.

Q: What about the “CSF2 gene expression, % Δ (percent change)” value (CSF2; 750 mg/mL CBD) of the same compound?
A: Its value is 93%.

Q: How did the “Relative Viability” value (cells; positive control, topical 24 hours, untreated = 100%) turn out when Triton-X was run?
A: The value was 3%.
